Results reported in ChEMBL document CHEMBL3885881, “DrugMatrix”.

Species on record: Rattus norvegicus
Assay: DrugMatrix - Regimen: Daily Repeat
Type: toxicity, organism-based, Sprague-Dawley
Design: regimen Daily Repeat, gender Male, age 6-8 weeks
Conditions: in vivo, po, route oral GAVAGE, […]; for ABSOLUTE BASOPHIL / ABSOLUTE EOSINOPHIL / ABSOLUTE LYMPHOCYTE / ABSOLUTE MONOCYTE / ABSOLUTE SEGMENTED NEUTROPHIL / BASOPHIL / EOSINOPHIL / ERYTHROCYTE COUNT / HEMATOCRIT / HEMOGLOBIN / LEUKOCYTE COUNT / LYMPHOCYTE / MEAN CORPUSCULAR HEMOGLOBIN / MEAN CORPUSCULAR HEMOGLOBIN CONCENTRATION / MEAN CORPUSCULAR VOLUME / MONOCYTE / NEUTROPHIL / NUCLEATED RED BLOOD CELLS / PLATELET COUNT: tissue Blood; for ALANINE AMINOTRANSFERASE / ALBUMIN / ALKALINE PHOSPHATASE / ASPARTATE AMINOTRANSFERASE / BLOOD UREA NITROGEN / CARBON DIOXIDE / CHLORIDE / CHOLESTEROL / CREATINE PHOSPHOKINASE / CREATININE / GLUCOSE / LACTATE DEHYDROGENASE / LIPASE / PHOSPHORUS / POTASSIUM / SODIUM / TOTAL BILIRUBIN / TOTAL PROTEIN / URIC ACID: tissue Plasma
[1] = 12 mg/kg, 120 h, dose level Low, time 5 day
[2] = 75 mg/kg, 72 h, dose level High, time 3 day
[3] = 75 mg/kg, 120 h, dose level High, time 5 day

CO[C@H]1/C=C/O[C@@]2(C)Oc3c(C)c(O)c4c(O)c(c(/C=N/N5CCN(C6CCCC6)CC5)c(O)c4c3C2=O)NC(=O)/C(C)=C\C=C\[C@H](C)[C@H](O)[C@@H](C)[C@@H](O)[C@@H](C)[C@H](OC(C)=O)[C@@H]1C [RIFAPENTINE]
ABSOLUTE BASOPHIL [1]: 0 CELLS/uL | ABSOLUTE EOSINOPHIL [1]: 0 CELLS/uL | ABSOLUTE LYMPHOCYTE [1]: 14120.67 CELLS/uL | ABSOLUTE MONOCYTE [1]: 159.67 CELLS/uL | ABSOLUTE SEGMENTED NEUTROPHIL [1]: 1686.33 CELLS/uL | BASOPHIL [1]: 0% | EOSINOPHIL [1]: 0% | ERYTHROCYTE COUNT [1]: 5.71 x10E6/uL | HEMATOCRIT [1]: 35.8% | HEMOGLOBIN [1]: 13.33 G/DL | LEUKOCYTE COUNT [1]: 15.97 x10E3/uL | LYMPHOCYTE [1]: 88.33% | MEAN CORPUSCULAR HEMOGLOBIN [1]: 23.4 pg | MEAN CORPUSCULAR HEMOGLOBIN CONCENTRATION [1]: 37.3 G/DL | MEAN CORPUSCULAR VOLUME [1]: 62.73 fL | MONOCYTE [1]: 1% | NEUTROPHIL [1]: 10.67% | NUCLEATED RED BLOOD CELLS [1]: 0 /100WBC | PLATELET COUNT [1]: 1349 x10E3/uL | ALANINE AMINOTRANSFERASE [1]: 49.33 u/L | ALBUMIN [1]: 4.07 G/DL | ALKALINE PHOSPHATASE [1]: 549.33 u/L | ASPARTATE AMINOTRANSFERASE [1]: 91.67 u/L | BLOOD UREA NITROGEN [1]: 16 mg/dL | CARBON DIOXIDE [1]: 28 mmol/L | CHLORIDE [1]: 102.67 MEQ/L | CHOLESTEROL [1]: 54.33 mg/dL | CREATINE PHOSPHOKINASE [1]: 385.33 u/L | CREATININE [1]: 0.16 mg/dL | GLUCOSE [1]: 167.67 mg/dL | LACTATE DEHYDROGENASE [1]: 391.67 u/L | LIPASE [1]: 9.67 u/L | PHOSPHORUS [1]: 11.2 mg/dL | POTASSIUM [1]: 6.39 MEQ/L | SODIUM [1]: 142.5 MEQ/L | TOTAL BILIRUBIN [1]: 0.3 mg/dL | TOTAL PROTEIN [1]: 5.9 G/DL | URIC ACID [1]: 1.7 mg/dL | ABSOLUTE BASOPHIL [2]: 0 CELLS/uL | ABSOLUTE EOSINOPHIL [2]: 0 CELLS/uL | ABSOLUTE LYMPHOCYTE [2]: 7973.67 CELLS/uL | ABSOLUTE MONOCYTE [2]: 130.33 CELLS/uL | ABSOLUTE SEGMENTED NEUTROPHIL [2]: 596 CELLS/uL | BASOPHIL [2]: 0% | EOSINOPHIL [2]: 0% | ERYTHROCYTE COUNT [2]: 5.11 x10E6/uL | HEMATOCRIT [2]: 32.07% | HEMOGLOBIN [2]: 12.17 G/DL | LEUKOCYTE COUNT [2]: 8.7 x10E3/uL | LYMPHOCYTE [2]: 92% | MEAN CORPUSCULAR HEMOGLOBIN [2]: 23.8 pg | MEAN CORPUSCULAR HEMOGLOBIN CONCENTRATION [2]: 37.97 G/DL | MEAN CORPUSCULAR VOLUME [2]: 62.73 fL | MONOCYTE [2]: 1.33% | NEUTROPHIL [2]: 6.67% | NUCLEATED RED BLOOD CELLS [2]: 0 /100WBC | PLATELET COUNT [2]: 1158.67 x10E3/uL | ALANINE AMINOTRANSFERASE [2]: 71.33 u/L | ALBUMIN [2]: 4.07 G/DL | ALKALINE PHOSPHATASE [2]: 536.33 u/L | ASPARTATE AMINOTRANSFERASE [2]: 84.33 u/L | BLOOD UREA NITROGEN [2]: 11 mg/dL | CARBON DIOXIDE [2]: 29.33 mmol/L | CHLORIDE [2]: 104.33 MEQ/L | CHOLESTEROL [2]: 73 mg/dL | CREATINE PHOSPHOKINASE [2]: 243 u/L | CREATININE [2]: 0.1 mg/dL | GLUCOSE [2]: 158.33 mg/dL | LACTATE DEHYDROGENASE [2]: 88 u/L | LIPASE [2]: 8.67 u/L | PHOSPHORUS [2]: 11.53 mg/dL | POTASSIUM [2]: 6.14 MEQ/L | SODIUM [2]: 147.17 MEQ/L | TOTAL BILIRUBIN [2]: 0.6 mg/dL | TOTAL PROTEIN [2]: 5.77 G/DL | URIC ACID [2]: 1.13 mg/dL | ABSOLUTE BASOPHIL [3]: 0 CELLS/uL | ABSOLUTE EOSINOPHIL [3]: 83.33 CELLS/uL | ABSOLUTE LYMPHOCYTE [3]: 14410.33 CELLS/uL | ABSOLUTE MONOCYTE [3]: 288.33 CELLS/uL | ABSOLUTE SEGMENTED NEUTROPHIL [3]: 1718 CELLS/uL | BASOPHIL [3]: 0% | EOSINOPHIL [3]: 0.67% | ERYTHROCYTE COUNT [3]: 6.37 x10E6/uL | HEMATOCRIT [3]: 38.63% | HEMOGLOBIN [3]: 14 G/DL | LEUKOCYTE COUNT [3]: 16.5 x10E3/uL | LYMPHOCYTE [3]: 87% | MEAN CORPUSCULAR HEMOGLOBIN [3]: 21.97 pg | MEAN CORPUSCULAR HEMOGLOBIN CONCENTRATION [3]: 36.2 G/DL | MEAN CORPUSCULAR VOLUME [3]: 60.67 fL | MONOCYTE [3]: 1.67% | NEUTROPHIL [3]: 10.67% | NUCLEATED RED BLOOD CELLS [3]: 0 /100WBC | PLATELET COUNT [3]: 1299.67 x10E3/uL | ALANINE AMINOTRANSFERASE [3]: 72 u/L | ALBUMIN [3]: 4.13 G/DL | ALKALINE PHOSPHATASE [3]: 446.67 u/L | ASPARTATE AMINOTRANSFERASE [3]: 99.33 u/L | BLOOD UREA NITROGEN [3]: 13.67 mg/dL | CARBON DIOXIDE [3]: 27.67 mmol/L | CHLORIDE [3]: 101 MEQ/L | CHOLESTEROL [3]: 39 mg/dL | CREATINE PHOSPHOKINASE [3]: 886.67 u/L | CREATININE [3]: 0.13 mg/dL | GLUCOSE [3]: 164 mg/dL | LACTATE DEHYDROGENASE [3]: 219.67 u/L | LIPASE [3]: 7.67 u/L | PHOSPHORUS [3]: 11.07 mg/dL | POTASSIUM [3]: 6.28 MEQ/L | SODIUM [3]: 141.1 MEQ/L | TOTAL BILIRUBIN [3]: 0.4 mg/dL | TOTAL PROTEIN [3]: 5.87 G/DL | URIC ACID [3]: 1.47 mg/dL
